Legend:
[1] = tested on: A549 lung cancer cells; assay: A549 lung cancer cell viability; assay type: cell-based, human; details: dosed as nanoparticles
[2] = tested on: MDA-MB-231 cells; assay: Cytotoxicity / cell viability (MTT assay); assay type: cell-based, human; details: for activity against the proliferation of MDA MB-231 triple negative breast cancer cells: dosed as nanoparticles
Method: Cytotoxicity of an optimised peptide NP formulation (F18) containing peptide of SEQ ID NO: 5 was measured by assessing cell viability (MTT assay). The MDA-MB-231 cells were seeded in 24-well plates (Nalgen Nunc International, Ochester, NY) at a density of 5×10^4 cells per well and incubated for 24 hours to allow for 60-70% confluency and sufficient adhesion. The cells were treated with different concentrations of the peptide-loaded NP, free peptide (SEQ ID NO: 5) and blank NP. After 24, 48, 72 and 96 hours, the treated cells were washed with 500 μl PBS, and 500 μl of 15% MTT dye solution in complete media added to each well. The plates were incubated at 37° C. and 5% CO2 for an additional 3 hours. The supernatant was then discarded, 500 μl DMSO added and the solution vigorously mixed. The optical density of each well was measured at 570 nm (reference wavelength 630 nm) in a microplate reader (Fluostar Omega, BMG Lab Tech GMBH, Germany). This experiment was performed in triplicate and repeated three times. Mean values±SD for each concentration was determined. Percentage cell viability was determined as the ratio of absorbance (570 nm) in treated cells relative to the absorbance in control cells (570 nm). The absorbance of the untreated cells was set at 100%. The IC50 was defined as the concentration of sample needed to reduce the signal by 50% relative to the control.

[3] = tested on: MDA-MB231 invasion; assay: MDA-MB231 invasion; assay type: cell-based, human; details: loaded nanoparticles
[4] = tested on: MDA-MB231 migration; assay: MDA-MB231 migration; assay type: cell-based, human; details: loaded nanoparticles
[5] = Isoelectric point of the peptide; assay type: physicochemical
[6] = molecular target: T1, RanGDP-RCC1 protein-protein interaction (Homo sapiens, UniProt P18754); assay: AlphaScreen assay; assay type: binding; details: in the absence of GTP
T1 sequence (P18754 1-421): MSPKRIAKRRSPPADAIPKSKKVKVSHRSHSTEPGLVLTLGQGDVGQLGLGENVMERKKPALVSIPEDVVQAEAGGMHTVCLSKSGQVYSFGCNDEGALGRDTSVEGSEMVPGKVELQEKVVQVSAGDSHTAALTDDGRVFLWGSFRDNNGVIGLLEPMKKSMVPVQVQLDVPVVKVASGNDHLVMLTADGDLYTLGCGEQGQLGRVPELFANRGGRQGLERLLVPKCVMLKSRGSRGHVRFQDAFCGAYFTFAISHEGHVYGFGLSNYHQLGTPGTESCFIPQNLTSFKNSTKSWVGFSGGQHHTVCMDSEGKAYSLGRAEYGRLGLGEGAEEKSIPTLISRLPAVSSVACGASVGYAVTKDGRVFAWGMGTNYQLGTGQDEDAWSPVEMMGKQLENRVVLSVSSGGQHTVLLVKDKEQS
From the text: The direct effect of the inhibitor of SEQ ID NO: 5 on the RanGDP-RCC1 interaction was also studied by AlphaScreen™ assay. This assay employs bead-based chemistry used to study biomolecular interactions in a microplate format, the acronym ALPHA stands for Amplified Luminescent Proximity Homogeneous Assay. In brief, the system uses two photosensitive bead types, a first donor bead that can absorb light from an external light source and a second acceptor bead that can first absorb energy from the donor bead if the beads are in close proximity and then in turn emit light. The Ran protein was attached to the donor bead and the RCC1 protein was attached to the acceptor bead. In the absence of peptide inhibitor the interaction of Ran and RCC1 hold the beads in close proximity and the emission from the acceptor bead is detectable.

[7] = molecular target: T2, RanGDP-RCC1 protein-protein interaction (Homo sapiens, UniProt P18754); assay: Ran activation assay (MDA MB-231 cell lysate, RanBP1 agarose beads); assay type: biochemical
T2 construct: endogenous in cells; host or cells: MDA MB-231 cell lysate
T2 sequence (P18754 2-421 limits assumed): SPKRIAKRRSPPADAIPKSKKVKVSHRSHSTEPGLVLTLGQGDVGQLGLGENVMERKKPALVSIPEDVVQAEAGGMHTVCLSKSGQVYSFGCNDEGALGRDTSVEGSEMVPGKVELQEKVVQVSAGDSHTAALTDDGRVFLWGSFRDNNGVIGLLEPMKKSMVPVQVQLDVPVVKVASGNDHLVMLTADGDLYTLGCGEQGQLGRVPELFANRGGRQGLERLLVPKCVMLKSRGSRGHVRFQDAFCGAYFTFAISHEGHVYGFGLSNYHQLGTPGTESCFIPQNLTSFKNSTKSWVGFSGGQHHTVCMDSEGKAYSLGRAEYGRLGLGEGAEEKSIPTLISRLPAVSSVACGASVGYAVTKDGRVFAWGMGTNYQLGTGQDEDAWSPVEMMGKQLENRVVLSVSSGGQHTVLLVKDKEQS
Method: Lane 1 is positive control for activated Ran complex & Lane 2, MDA MB-231 cell lysate, Lane 3 MDA MB-231 cell lysate loaded with GDP and incubated (negative control) with RanBP1 Agarose beads. Lane 4, MDA MB-231 cell lysate loaded with GTPyS (positive control) incubated with RanBP1 Agarose beads. Lane 5, MDA MB231 cell lysate treated by N-Terminal peptide, Lane 6, MDA MB-231 cell lysate loaded with GD and treated with N-terminal peptide SEQ ID NO: 5, Lane 7, MDA MB231 cell lysate loaded with GTPyS and treated with N-terminal peptide SEQ ID NO: 5 incubated with RanBP1 Agarose beads. […] It can therefore be seen that the N-terminal peptide SEQ ID NO: 5 disturbs the interaction between Ran-RCC1 by direct binding to RCC1.
In this figure, Lane 1 is positive control (activated Ran protein); Lane 2, MDA MB-231 cell lysate; Lane 3 MDA MB-231 cell lysate loaded with GDP and incubated (negative control) with RanBP1 Agarose beads; Lane 4, MDA MB-231 cell lysate loaded with GTPyS (positive control) incubated with RanBP1 Agarose beads; Lane 5, MDA MB-231 cell lysate treated by peptide of SEQ ID 5; Lane 6, MDA MB-231 cell lysate loaded with GD and treated with peptide of SEQ ID 5; and Lane 7, MDA MB-231 cell lysate loaded with GTPyS and treated with peptide of SEQ ID 5 incubated with RanBP1 Agarose beads.

[8] = tested on: MDA-MB-231 cells; assay: Cell cycle analysis (PI flow cytometry); assay type: cell-based, human
Method: To determine the effect of peptide (SEQ ID NO: 5)-loaded NP on cell growth, cultured cells were treated with the same doses of free peptide and peptide-loaded NP as used in the cell viability assay. After 24 and 48 hours of treatment, cells were suspended in PBS and fixed by addition of 70% ice-cold methanol. Cells were treated by adding RNase (1.0 μg ml^−1) to the samples and re-suspending in propidium iodide (PI) stain (5.0 μg ml^−1). PI fluorescence intensity was determined using flow cytometry through a FL-2A filter at 585 nm. Flow-cytometric data were analysed using Cyflogic (v.1.2.1) software. Quantification of apoptotic cells was determined by flow cytometry as the percentage of cells in the sub-G1 region (hypodiploidy) in cell cycle analysis as previously described [PLoS ONE, 6 (2011) e23640].

Row | Sequence | activity against the proliferation of A549 lung cancer cells [1] | activity against the proliferation of MDA MB-231 triple negative breast cancer cells [2] | effect on MDA-MB231 invasion [3] | effect on MDA-MB231 migration [4] | isoelectric point (pI) [5] | inhibition of complex formation [6] [%] | effect on Ran-GDP/RCC1 interaction (activated Ran pull-down) [7] | cytotoxic action (cell viability) ([2]; 2, 4 and 8 μM, 24, 48, 72 and 96 hours) | growth rate of the cells [8]
1 | CQYEHDLEVAQTTALP [SEQ ID NO: 7, Ran positions 196 to 210 with N-terminal Cys] | significant activity | significant activity | – | – | – | – | – | – | –
2 | CVDIKDRKVKAKS [SEQ ID NO: 6, Ran positions 124 to 135 with N-terminal Cys] | significant activity | significant activity | – | – | – | – | – | – | –
3 | CAQGEPQVQFK [SEQ ID NO: 5] | significant activity | significant activity | inhibitory effect | inhibitory effect | around 6.0 | 45 | disturbs the interaction between Ran-GDP and RCC1 | no significant cytotoxicity | not affected
